Literature values in patent EP4640072A1, “FLEECE MATERIALS TREATED WITH AN ION-PAIRING AGENT AND ORAL PRODUCTS COMPRISING FLEECE MATERIALS TREATED WITH AN ION-PAIRING AGENT” (Nicoventures Trading Limited, priority 2024, dated 2025).

What was measured:
[1] = lipophilicity of the organic acid; values obtained from PubChem or calculated
[2] = test system: human buccal tissue; conditions: nicotine solution at pH = 6 relative to nicotine solution at pH 8.1; perfusion cell
[3] = not given; remark: listed apart in the source

| Compound | log(P)* [1] | other results |
| --- | --- | --- |
| isopropyl benzoic acid | 3.5 |  |
| COC(=O)/C=C/C(C)=C\C=C\C(C)=C\C=C\C=C(C)\C=C\C=C(C)\C=C\C(=O)O [bixin, (2E,4E,6E,8E,10E,12E,14E,16Z,18E)-20-methoxy-4,8,13,17-tetramethyl-20-oxoicosa-2,4,6,8,10,12,14,16,18-nonaenoic acid] |  | solubility: soluble in fats and alcohols but insoluble in water; chemical stability (when isolated, converts via isomerization into trans-bixin (β-bixin)): chemically unstable when isolated |
| CCCCCCCCCCCC(=O)O [dodecanoic acid] | 4.6 |  |
| CCCCCCCS(=O)(=O)O [1-heptanesulfonic acid] | 2.0 |  |
| CC(C)[C@@H]1CC[C@@H](C)C[C@H]1OC(=O)CCC(=O)O [monomenthyl succinate] | 3 |  |
| CC(/C=C/C=C(C)/C=C/C(=O)O)=C\C=C\C=C(C)\C=C\C=C(C)\C=C\C(=O)O (stereo in doubt) [norbixin, (2E,4E,6E,8E,10E,12E,14E,16E,18E)-4,8,13,17-tetramethylicosa-2,4,6,8,10,12,14,16,18-nonaenedioic acid] |  | solubility: water soluble |
| O=C(/C=C/c1ccc(O)c(O)c1)O[C@@H](C(=O)O)[C@@H](O)C(=O)O [Caftaric acid] | 1.2 |  |
| CN1CCCC1c1cccnc1 (stereo not shown) [nicotine] |  | factor by which the rate of diffusion across human buccal tissue was reduced [2]: ~ 7; log Kα1 ([3]; pyridine ring nitrogen): 3.41; log Ka2 ([3]; pyrrolidine ring nitrogen): 8.02 |
| ethyl benzoic acid | 2.9 |  |
| CCCCCCCC(=O)O [octanoic acid] | 3.05 |  |
